Patent US8524770B2, “Wool care composition” (Director General, Defence Research & Development …, priority 2009, dated 2013)

Tests used:
clothes moths [1] = settings: Abbott & Billings 1935, Journal of Economic Entomology; cited from earlier work
clothes moths [2] = assay: Protection of woollen articles / repellency against clothes moths; format: in vivo; settings: confirmed by the present inventors
Source text: Conventionally naphthalene or Paradichlorobenzene is known in the art to be used to protect woollen and fur-feather lined articles from insect damage during their storage. But these above compounds are ineffective against clothes moths and thus unable to provide protection to the woollen items as established by Abbott & Billings of USA in 1935 and published their work in the Journal of Economic Entomology on page 493-495 as entitled “Further work showing that Paradichlorobenzene, Naphthalene and cedar oils are ineffective as repellents against clothes moth”. The ineffectiveness of the naphthalene balls in protection of woollen articles from insect pests is also confirmed by the present inventors.

| Structure (SMILES) | Effectiveness as repellent against clothes moths (clothes moths [1]) | Protection of woollen articles from insect pests (clothes moths [2]) |
| --- | --- | --- |
| Clc1ccc(Cl)cc1 [Paradichlorobenzene] | ineffective | – |
| c1ccc2ccccc2c1 [naphthalene] | ineffective | ineffectiveness |
